Measurements from EP0552417B1, “Cyclic peptides and use thereof” (priority 1991, dated 1993).
Read-outs that look alike come from different tables or passages of the source.

Details: amide bond, 18-membered ring, DMF, 4 steps
[1] = HONB ester (HONB/DCC preactivation)/TEA, 5.0 mM
[2] = HONB/DCC preactivation, TEA, 5.0 mM
[3] = HONB/DCC (preformed ONB ester), TEA, 5.0 mM
[4] = HONB/DCC (preactivation), HCl/dioxane, TEA, 5.0 mM

cyclo[-D-Asp-Asp-Ala-D-Leu-Leu-D-Trp-]
ring closure, yield after HPLC [1]: 17.8%

cyclo[-D-Asp-Ala-D-Glu-D-Leu-Leu-D-Trp-]
ring closure, yield after HPLC [2]: 10.8%

cyclo[-D-Asp-Hyp(Bzl)-Asp-D-Thg(2)-Leu-D-Trp-]
ring closure, yield after HPLC [3]: 5.7%

cyclo[-D-Asp-Orn(COCH2CH2Ph)-Asp-D-Leu-Leu-D-Trp-]
ring closure, yield after HPLC (HONB/DCC (preformed ONB ester), TEA, 5.1 mM): 40.9%

cyclo[-D-Asp-Ala-Asp-D-Leu-Leu-D-Trp-]
ring closure, yield after HPLC [2]: 18.2%

cyclo[-D-Asp-Orn(COCH2-Ind)-Asp-D-Leu-Leu-D-Trp-]
ring closure, yield after HPLC (HONB/DCC (preformed ONB ester), TEA, 4.9 mM): 12.5%

cyclo[-D-Asp-Glu-Ala-D-Leu-Leu-D-Trp-]
ring closure, yield after HPLC [1]: 20.6%

cyclo[-D-Asp-Trp-Asp-D-γMeLeu-Leu-D-Trp-]
ring closure, yield after HPLC [4]: 51.5%

cyclo[-D-Asp-Asn(CH2CH2Ph)-Asp-D-Leu-Leu-D-Trp-]
ring closure, yield after HPLC (HONB/DCC (preactivation), HCl/dioxane, TEA, 3.5 mM): 24.1%

cyclo[-D-Asp-Trp-Asp-D-tLeu-Leu-D-Trp-]
ring closure, yield after HPLC [4]: 42.8%

cyclo[-D-Asp-Asn(CH2CH2-Ind)-Asp-D-Leu-Leu-D-Trp-]
ring closure, yield after HPLC (HONB/DCC (preactivation), HCl/dioxane, TEA, 3.2 mM): 19.4%

cyclo[-D-Asp-Gln(Bzl)-Asp-D-Thg(2)-Leu-D-Trp-]
ring closure, yield after HPLC (HONB/DCC preactivation, HCl, TEA, 5.1 mM): 8.8%

cyclo[-D-Asp-Asn(CH2Ph)-Asp-D-Leu-Leu-D-Trp-]
ring closure, yield after HPLC (HONB ester (HONB/DCC preactivation)/TEA, 3.5 mM): 23.8%

cyclo[-D-Asp-Orn(COCH2Ph)-Asp-D-Leu-Leu-D-Trp-]
ring closure, yield after HPLC (HONB/DCC (preformed ONB ester), TEA, 4.7 mM): 2.9%

cyclo[-D-Asp-Ala-D-Asp-D-Leu-Leu-D-Trp-]
ring closure, yield after HPLC [2]: 15.3%

cyclo[-D-Asp-Trp-Asp-D-Thg(2)-Leu-D-Trp-]
ring closure, yield after HPLC (HONB/DCC (preactivation), HCl/dioxane, TEA, 5.1 mM): 4.6%

cyclo[-D-Asp-Trp-Asp-D-Leu-Leu-D-Trp-]
ring closure, yield after HPLC [1]: 52.9%

cyclo[-D-Asp-Ala-Glu-D-Leu-Leu-D-Trp-]
ring closure, yield after HPLC [2]: 24.1%

H-Acbu-Leu-dTrp-dAsp(OBzl)-Trp-Asp(OBzl)-ONB
ring closure, yield after HPLC (the molecule shown is the open-chain precursor, HONB/DCC (preformed ONB ester), TEA, 5.0 mM): 10.4%

cyclo[-D-Asp-Asn(CH2CH2-Ind)-Asp-D-Thg(2)-Leu-D-Trp-]
ring closure, yield after HPLC (HONB/DCC preactivation, HCl, TEA, 5.0 mM): 9.5%

cyclo[-D-Asp-Orn(COPh)-Asp-D-Leu-Leu-D-Trp-]
ring closure, yield after HPLC [3]: 48.1%

cyclo[-D-Asp-Gly-Ala-D-Leu-Leu-D-Trp-]
ring closure, yield after HPLC (HONB ester (HONB/DCC preactivation)/TEA, 5.9 mM): 19.2%

cyclo[-D-Asp-Pro-Asp-D-Leu-Leu-D-Trp-]
ring closure, yield after HPLC (HONB ester (HONB/DCC preactivation)/TEA, 5.1 mM): 47.4%
